Test systems include K-562 leukemia; HS 578T breast; MOLT-4 leukemia; T-47D breast; SNB-19 CNS.
Common to all, as to assay: NCI tumour cell line growth inhibition, 48 h

SMILES strings stand for the structures. Where “and” joins values, the source holds several entries; their conditions need not be identical. Identical values can stand only once.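 96-well plates; 48 h exposure; 5 concentrations. Endpoints by linear interpolation between flanking doses. Not reached: highest tested concentration assigned. GI50: concentration for 50% inhibition of growth. Definition used: TGI = concentration required for complete inhibition of growth.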

In the case of `OCCn1c(-c2ccncc2)c(-c2ccc(F)cc2)c2ncccc21`, the GI50 in the experiment with K-562 leukemia, in the experiment on HS 578T breast, with MOLT-4 leukemia, in the experiment on T-47D breast and with SNB-19 CNS was above 25 µM each time. In addition, the TGI in the experiment with K-562 leukemia, in the experiment with HS 578T breast, in the experiment with MOLT-4 leukemia, with T-47D breast and in the experiment with SNB-19 CNS was above 25 µM in each case.

Turning to `COc1ccc(-c2ccc(/C=N/n3c(COc4ccc(Cl)c(C)c4)nn(CN4CCOCC4)c3=S)o2)c([N+](=O)[O-])c1`, the GI50 is 20.4 µM with K-562 leukemia; 37.8 µM in the experiment on HS 578T breast; 21.8 µM in the experiment with MOLT-4 leukemia; 44.1 µM in the experiment with T-47D breast; 41.2 µM with SNB-19 CNS. The TGI in the experiment on K-562 leukemia is 51.7 µM; in the experiment on HS 578T breast, above 100 µM; in the experiment with MOLT-4 leukemia it was 70.1 µM; with T-47D breast, above 100 µM; in the experiment with SNB-19 CNS, above 100 µM.

In the case of `c1csc(-c2[nH]nc3c2CCc2ccccc2-3)c1`, the GI50 in the experiment on K-562 leukemia is 22 µM; with HS 578T breast, 14.5 µM; with MOLT-4 leukemia it was 14.9 µM; in the experiment with T-47D breast it was 0.17 µM; with SNB-19 CNS, 13.3 µM. Further, the TGI in the experiment with K-562 leukemia is 68.6 µM; with HS 578T breast, 55.4 µM; in the experiment with MOLT-4 leukemia, 53.8 µM; with T-47D breast, 0.515 µM; with SNB-19 CNS it was above 65.9 µM.

As to `CCNc1nc(-c2ccc(Cl)c(OC)c2)c(-c2ccnc(NCCNS(=O)(=O)c3ccc(Cl)cc3)n2)s1`, the GI50 with K-562 leukemia is 3.17 µM; in the experiment with HS 578T breast, 3.98 µM; with T-47D breast it was 2.48 µM; in the experiment on SNB-19 CNS, 4.59 µM. For the same compound, the TGI was above 100 µM in the experiment with K-562 leukemia, 87.2 µM in the experiment with HS 578T breast, 8.02 µM in the experiment with T-47D breast and above 100 µM in the experiment with SNB-19 CNS.

With `Oc1ccc(CCNc2nc3ccccc3c3[nH]c4ccccc4c23)cc1`, the GI50 was 1.91 µM in the experiment with K-562 leukemia, 0.472 µM with MOLT-4 leukemia, 1.94 µM in the experiment on T-47D breast and 1.83 µM in the experiment on SNB-19 CNS. The TGI was above 100 µM in the experiment on K-562 leukemia, above 100 µM with MOLT-4 leukemia, 6.34 µM in the experiment on T-47D breast and 5.3 µM with SNB-19 CNS.

In the case of `COc1ccc(Cl)cc1Nc1nc(C(F)(F)F)ccc1C(=O)N/N=C/c1ccc(Cl)cc1`, the GI50 was 3.85 µM with K-562 leukemia; 22.3 µM with HS 578T breast; 1.76 µM in the experiment on MOLT-4 leukemia; 0.971 µM with T-47D breast; 6.42 µM in the experiment with SNB-19 CNS. Also, the TGI with K-562 leukemia is 40.5 µM; in the experiment with HS 578T breast it was above 100 µM; in the experiment on MOLT-4 leukemia, 11.1 µM; with T-47D breast, above 100 µM; in the experiment on SNB-19 CNS, above 100 µM.

In the case of `O=NNc1nc(-c2ccccn2)nc2ccccc12`, the TGI in the experiment with K-562 leukemia, in the experiment on HS 578T breast, in the experiment with MOLT-4 leukemia, in the experiment with T-47D breast and in the experiment with SNB-19 CNS was above 100 µM each time.

Take `CN1CCN(Cc2ccc(NC(=O)c3cncc(C#Cc4cnc5cccnn45)c3)cc2C(F)(F)F)CC1`: the GI50 in the experiment on K-562 leukemia is 0.005 µM; in the experiment on HS 578T breast, 0.922 µM; in the experiment with MOLT-4 leukemia, 1.42 µM; with T-47D breast it was 2.2 µM; in the experiment with SNB-19 CNS it was 1.8 µM. Moreover, the TGI in the experiment on K-562 leukemia was 21.6 µM; in the experiment with HS 578T breast, 3.26 µM; with MOLT-4 leukemia it was 5.34 µM; in the experiment on T-47D breast, 11.9 µM; in the experiment on SNB-19 CNS it was 5.62 µM.

For `COc1cccc2c(Nc3ccc(C(=O)NCCN4CCNCC4)cc3)cc(-c3ccccc3)nc12`, the GI50 in the experiment on K-562 leukemia was 27.7 µM; in the experiment on HS 578T breast it was 46.9 µM; in the experiment with MOLT-4 leukemia it was 30.6 µM; in the experiment with T-47D breast, 29.4 µM; with SNB-19 CNS it was 53.1 µM. The TGI is 75.3 µM with K-562 leukemia; above 100 µM in the experiment with HS 578T breast; above 100 µM in the experiment with MOLT-4 leukemia; above 100 µM in the experiment with T-47D breast; above 100 µM with SNB-19 CNS.

As for `Brc1ccc2c(c1)-c1ccccc1C1=NCCN12`, the GI50 was 0.857 µM in the experiment on K-562 leukemia; 2.8 µM in the experiment with HS 578T breast; 0.419 µM in the experiment with MOLT-4 leukemia; 2.85 µM with T-47D breast; 2.17 µM in the experiment on SNB-19 CNS. In addition, the TGI in the experiment with K-562 leukemia amounted to 5.1 µM; in the experiment with HS 578T breast, 12 µM; in the experiment with MOLT-4 leukemia it was 3.73 µM; in the experiment on T-47D breast, 18.4 µM; in the experiment with SNB-19 CNS it was 11.6 µM.

Consider `Cn1c(=O)c(Oc2ccc(F)cc2F)cc2cnc(NC3CCC(O)CC3)nc21` (centres undefined), for which the GI50 with K-562 leukemia, with HS 578T breast, in the experiment with MOLT-4 leukemia, in the experiment on T-47D breast and in the experiment on SNB-19 CNS was above 25 µM throughout. Besides, the TGI with K-562 leukemia, in the experiment on HS 578T breast, in the experiment with MOLT-4 leukemia, with T-47D breast and in the experiment on SNB-19 CNS was above 25 µM in each case.

As to `COc1cc2nccc(Oc3ccc(NC(=O)C4(C(=O)Nc5ccc(F)cc5)CC4)cc3)c2cc1OC`, the GI50 is 2.15 µM and 0.281 µM with K-562 leukemia; 0.45 µM and 0.857 µM in the experiment with HS 578T breast; > 10 µM and 3.44 µM with MOLT-4 leukemia; > 10 µM and 4.36 µM with T-47D breast; > 10 µM and 7.69 µM in the experiment with SNB-19 CNS. For the same compound, the TGI in the experiment with K-562 leukemia is > 10 µM and 2.82 µM; in the experiment on HS 578T breast it was > 10 µM and 10.8 µM; in the experiment on MOLT-4 leukemia it was above 59.1 µM; with T-47D breast, above 100 µM; with SNB-19 CNS it was above 100 µM.

For the compound `Cc1cccc2c1Oc1ncccc1C2NC(=O)CN(C)C` (centres undefined), the TGI with K-562 leukemia, with MOLT-4 leukemia and in the experiment with SNB-19 CNS was above 10 µM each time.

Turning to `COc1cc2c(cc1OCCCN1CCN(CCCn3c4ccccc4c4ccccc43)CC1)N=C[C@@H]1CCCN1C2=O`, the TGI with HS 578T breast worked out at 0.254 µM; in the experiment with MOLT-4 leukemia it was 0.257 µM; with T-47D breast, 0.868 µM; in the experiment on SNB-19 CNS, 1.17 µM. Also, the GI50 with MOLT-4 leukemia is 0.044 µM; with T-47D breast, 0.206 µM; in the experiment on SNB-19 CNS it was 0.274 µM.

`Cn1c(=O)c(-c2c(Cl)cccc2Cl)cc2cnc(Nc3ccc(N4CCOCC4)cc3)nc21`: the GI50 with K-562 leukemia was below 0.01 µM; with MOLT-4 leukemia it was below 0.0476 µM; with T-47D breast it was 0.598 µM; in the experiment with SNB-19 CNS it was 0.561 µM. The TGI with K-562 leukemia is 0.0538 µM; in the experiment on MOLT-4 leukemia it was 0.804 µM; in the experiment on T-47D breast it was 9.77 µM; in the experiment on SNB-19 CNS, above 22.6 µM.

Values taken from PubChem BioAssay (NCI).
